The record followed here is patent publication US11312925B2, “Pyrithione preservative system and C1-C12 ethoxylated alcohol in hard surface cleaning products” (ECOLAB USA INC., priority 2015, dated 2022).

In data set [1] the test system is Bacterial cocktail (Staphylococcus aureus ATCC 6538, Escherichia coli ATCC 11229, Enterobacter aerogenes ATCC 13048, Burkholderia cepacia ATCC 25416 …). Nature of the data set: Preservative test over 28 days in 7 and 18.5 grain water, bacterial counts (Example 5). The note with it: 140 ppm with 2000 ppm monosodium citrate versus 300 ppm with no added acidity. The class given is cell-based.
Protocol: (§1) For USP bacteria there must be no less than 2.0 log reduction from the initial inoculated count at 14 days, and no increase from the 14 days' count at 28 days. A result of “no increase” is defined as not more than 0.5 log higher than previous value. For additional standards examined the preservation capability of a composition is evaluated over a predetermined time (as identified in the Example) and the inhibition or reduction of microbial growth is assessed, without the requirement for complete elimination of the entire microbial inoculum.
Formulations of pyrithione preservatives were evaluated in existing solid rinse aid formulations for USP and commercial standards, modified to incorporate field isolate from a sump solution. The survival of both bacterial cocktail and fungal cocktails (as described in prior Example) were monitored over 28 days.
The bacteria inoculum was made up of equal parts of the organisms listed (incubated in tryptone glucose extract agar at 32° C. for 3 days):

Data set [2] relates to Yeast and mold cocktail (Canidia albicans ATCC 10231, Saccharomyces cerevisiae ATCC 834, Aspergillus niger ATCC 16404). Nature of the data set: Preservative test over 28 days in 7 and 18.5 grain water, yeast and mold counts (Example 5). The class given is cell-based. The note with it: 140 ppm with 2000 ppm monosodium citrate versus 200 ppm bis (3-aminopropyl) dodecylamine in hard water.
Protocol: as §1
The survival of both bacterial cocktail and fungal cocktails (as described in prior Example) were monitored over 28 days.
The yeast and mold inoculum was made up of equal parts of the organisms listed (incubated in sabourand agar at 26° C. for 3 days):

Data set [3] concerns yeast and mold inoculum cocktail (Canidia albicans ATCC 10231, Saccharomyces cerevisiae ATCC 834, Aspergillus niger ATCC 16404). The note with it: over 3 weeks in sump solution; compared with the other evaluated preservatives; FIG. 1.
Protocol: In order to identify preservative systems for replacing Kathon CG-ICP (isothiazolinone blend) from solid rinse aid formulations, various potential preservatives were evaluated.
For performance reasons, the preservatives were tested with the 4500 MW polyacrylic acid polymer and 10% level of monosodium citrate or fumaric acid.
The test temperature was ambient (20° C.-26° C.) and exposure times were 0, 7, 14, 28 and 35 days.
The preservatives were formulated at their upper concentration levels before triggering the use of personal protective equipment and measured fungi recovered and pH.
The nature of data set [4]: Compatibility in solution with 4500 MW polyacrylic acid polymer under acidic conditions. Format: physicochemical.

Consider `On1ccccc1=S.[Na]` [sodium pyrithione, 1-hydroxy-2(1H)-pyridinethione, sodium salt], for which the “inhibition of microorganisms (especially bacteria), comparison” value in data set [1] is given as “much more effective at inhibiting microorganisms”. Besides, in data set [2], the “preservation performance, comparison” value is listed as “outperformed”. For the same compound, the “impact at reducing fungi (mean log fungi reduction)” value in data set [3] was “greatest impact at reducing fungi”.
For the compound `CCCCCCCCCCCCN(CCCN)CCCN` [bis (3-aminopropyl) dodecylamine, Bis (3-aminopropyl) dodecylamine], in data set [4], the “behaviour in solution with the 4500 MW polyacrylic acid polymer” value is on record as “precipitate out of solution”.
